Experimental data reported in US11384078B2, “5,6-fused-bicyclic compounds and compositions for the treatment of parasitic diseases” (NOVARTIS AG, priority 2017, dated 2022).
Read-outs that look alike come from different tables or passages of the source.

What was measured:
Assay type in all cases: cell-based
[1] = test system: Trypanosoma cruzi amastigotes cultured in 3T3 fibroblast cells; assay: Assay for growth inhibition of kinetoplastid parasite Trypanosoma cruzi (beta-galactosidase Tulahuen strain, CPRG readout); conditions: T. cruzi amastigotes in 3T3 fibroblast cells, read-out: Buckner infectious T. cruzi EC50
Outline: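 3T3 fibroblasts (1,000 cells/well) plated overnight, treated with compound in DMSO, then infected with 10,000 Lac-Z-expressing Tulahuen trypomastigotes. After 6 days, 0.6 mM CPRG with 0.6% NP-40 added for 2 h at room temperature; absorbance gives relative intracellular amastigote numbers. Benznidazole and nifurtimox serve as positive controls.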

[2] = test system: L. donovani HU3 strain in mouse peritoneal macrophages; assay: Assay for inhibition of parasitemia of Leishmania donovani in mouse macrophages (SYBR Green nuclei count, high-content imaging); conditions: L. donovani in mouse peritoneal macrophages, read-out: L. donovani in Mouse Macrophages EC50
Outline: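 Peritoneal macrophages from uninfected BALB/c mice were infected for 24 h with spleen-derived L. donovani HU3 (4×10^5 parasites per 2×10^4 macrophages), then cultured with compound for 5 days at 37° C, 5% CO2. After fixation and permeabilization, parasite nuclei were stained with SYBR Green and counted by high-content imaging.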

[3] = test system: Leishmania donovani axenic amastigote; assay: In vitro assay for growth inhibition of Leishmania donovani axenic amastigote (Cell TiterGlo luminescence); conditions: L. donovani axenic amastigotes in vitro, read-out: L. donovani amastigotes EC50
Outline: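 Axenic L. donovani amastigotes (9600/well) grown at 37 °C, 5% CO2 in supplemented RPMI 1640, pH 5.5, with compound added from DMSO. After two days, viability read by CellTiter-Glo luminescence against DMSO and control-compound wells.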

[4] = test system: Trypanosoma brucei brucei (Lister 427) strain; assay: Assay for growth inhibition against Trypanosoma brucei brucei (Cell TiterGlo ATP luminescence); conditions: T. brucei brucei (Lister 427), read-out: T. Brucei (HAT) EC50
Outline: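 T. b. brucei Lister 427 grown in HMI-9 with 10% FBS and 10% serum plus, seeded at 10,000 parasites/mL with 10-point threefold compound dilutions in duplicate, 37 °C for 2 days. Viability read as ATP luminescence 30 min after Cell TiterGlo; IC50 versus untreated controls.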

[5] = Leishmania donovani, Peritoneal macrophage

| SMILES | EC50 ([1]; Trypanosoma cruzi, Fibroblast) [µM] | EC50 [2, 5] [µM] | EC50 ([3]; Leishmania donovani) [µM] | EC50 ([4]; Trypanosoma brucei) [µM] | EC50 [1] [µM] | EC50 [2] [µM] | EC50 [3] [µM] | EC50 [4] [µM] |
| --- | --- | --- | --- | --- | --- | --- | --- | --- |
| CN(C)c1cnc2nn(-c3cc(NC(=O)c4ccco4)ccc3F)cc2c1 [Compound 140, N-{3-[5-(dimethylamino)-2H-pyrazolo[3,4-b]pyridin-2-yl]-4-fluorophenyl}furan-2-carboxamide] | 0.023 | 0.041 | 0.1 | < 0.023 | – | – | – | – |
| O=C(Nc1ccc(F)c(-n2cc3cc(N4CC(F)(F)C4)cnc3n2)c1)[C@@H]1C[C@H]1F (single isomer, unassigned) [Compound 271, (1 S,2R)—N-(3-(5-(3,3-difluoroazetidin-1-yl)-2H-pyrazolo[3,4-b]pyridin-2-yl)-4-fluorophenyl)-2-fluorocyclopropane-1-carboxamide or (1R,2S)—N-(3-(5-(3,3-difluoroazetidin-1-yl)-2H-pyrazolo[3,4-b]pyridin-2-yl)-4-fluorophenyl)-2-fluorocyclopropane-1-carboxamide] | – | – | – | – | 0.144 | 0.003 | 0.12 | 0.388 |
| O=C(Nc1ccc(F)c(-n2cc3cc(N4CC(F)C4)cnc3n2)c1)N1CC[C@@H](F)C1 [Compound 302, (3R)-3-fluoro-N-{4-fluoro-3-[5-(3-fluoroazetidin-1-yl)-2H-pyrazolo[3,4-b]pyridin-2-yl]phenyl}pyrrolidine-1-carboxamide] | 0.002 | 0.015 | 0.118 | 0.005 | – | – | – | – |
| CCC(C)(C)c1cnc2nn(-c3cc(NC(=O)c4ccco4)ccc3F)cc2c1 [Compound 60, N-{4-fluoro-3-[5-(2-methylbutan-2-yl)-2H-pyrazolo[3,4-b]pyridin-2-yl]phenyl}furan-2-carboxamide] | 0.44 | 2.4 | 2 | 1.3 | – | – | – | – |
| O=C(Nc1ccnc(-n2cc3cc(N4CC(F)(F)C4)cnc3n2)c1)N1CCC1 [Compound 280, N-(2-(5-(3,3-difluoroazetidin-1-yl)-2H-pyrazolo[3,4-b]pyridin-2-yl)pyridin-4-yl)azetidine-1-carboxamide] | 0.048 | 0.028 | 0.033 | 0.04 | – | – | – | – |
| CC1CCC(C(=O)Nc2ccc(F)c(-n3cc4cc(C(C)C)cnc4n3)c2)C1 (centres unmarked) [Compound 66, N-{4-fluoro-3-[5-(propan-2-yl)-2H-pyrazolo[3,4-b]pyridin-2-yl]phenyl}-3-methylcyclopentane-1-carboxamide] | 0.15 | 0.87 | 0.74 | 0.12 | – | – | – | – |
| Cc1cccnc1-c1cnc2nn(-c3cc(NC(=O)c4oc(CO)nc4C)ccc3F)cc2c1 [Compound 334, N-(4-fluoro-3-(5-(3-methylpyridin-2-yl)-2H-pyrazolo[3,4-b]pyridin-2-yl)phenyl)-2-(hydroxymethyl)-4-methyloxazole-5-carboxamide] | 1.46 | 1.87 | 0.236 | 0.269 | – | – | – | – |
| O=C(Nc1ccc(F)c(-n2cc3cc(N4CC(F)C4)cnc3n2)c1)N1CC(F)(F)C1 [Compound 303, 3,3-difluoro-N-{4-fluoro-3-[5-(3-fluoroazetidin-1-yl)-2H-pyrazolo[3,4-b]pyridin-2-yl]phenyl}azetidine-1-carboxamide] | 0.01 | 0.015 | 0.49 | 0.005 | – | – | – | – |
| O=C(Nc1ccc(Cl)c(-n2cc3cc(N4CC(F)(F)C4)cnc3n2)c1)N1CCC1 [Compound 284, N-{4-chloro-3-[5-(3,3-difluoroazetidin-1-yl)-2H-pyrazolo[3,4-b]pyridin-2-yl]phenyl}azetidine-1-carboxamide] | 0.015 | 0.056 | 0.027 | 0.015 | – | – | – | – |
| O=C(Nc1ccc(F)c(-n2cc3cc(-c4ccccn4)cnc3n2)c1)C1CC12CC2 (centres unmarked) [Compound 346, N-{4-fluoro-3-[5-(pyridin-2-yl)-2H-pyrazolo[3,4-b]pyridin-2-yl]phenyl}spiro[2.2]pentane-1-carboxamide] | 0.034 | 0.155 | 0.239 | 0.041 | – | – | – | – |
| O=C(Nc1ccc(F)c(-n2cc3cc(-c4ncccc4F)cnc3n2)c1)N1CC[C@@H](F)C1 [Compound 317, (3R)-3-fluoro-N-{4-fluoro-3-[5-(3-fluoropyridin-2-yl)-2H-pyrazolo[3,4-b]pyridin-2-yl]phenyl}pyrrolidine-1-carboxamide] | 0.001 | 0.002 | 0.002 | 0.005 | – | – | – | – |
| O=C(Nc1ccc(F)c(-n2cc3cc(N4CCCC4)cnc3n2)c1)c1ccco1 [Compound 141, N-{4-fluoro-3-[5-(pyrrolidin-1-yl)-2H-pyrazolo[3,4-b]pyridin-2-yl]phenyl}furan-2-carboxamide] | 0.022 | 0.012 | 0.08 | < 0.023 | – | – | – | – |
| CC(C)c1cnc2nn(-c3cc(NC(=O)N4CC[C@@H](F)C4)ccc3F)cc2c1 [Compound 195, (3R)-3-fluoro-N-{4-fluoro-3-[5-(propan-2-yl)-2H-pyrazolo[3,4-b]pyridin-2-yl]phenyl}pyrrolidine-1-carboxamide] | 0.004 | 0.0064 | 0.01 | < 0.023 | – | – | – | – |
| CC(C)c1cnc2nn(-c3cc(NC(=O)C4CC4)ccc3F)cc2c1 [Compound 90, N-{4-fluoro-3-[5-(propan-2-yl)-2H-pyrazolo[3,4-b]pyridin-2-yl]phenyl}cyclopropanecarboxamide] | 0.14 | 0.31 | 0.28 | 0.077 | – | – | – | – |
| CC(C)(C)Cc1cnc2nn(-c3cc(NC(=O)N4CCC4)ccc3F)cc2c1 [Compound 94, N-{3-[5-(2,2-dimethylpropyl)-2H-pyrazolo[3,4-b]pyridin-2-yl]-4-fluorophenyl}azetidine-1-carboxamide] | 0.0018 | 0.0081 | 0.012 | < 0.023 | – | – | – | – |
| CC(C)CCc1cnc2nn(-c3cc(NC(=O)N4CCC4)ccc3F)cc2c1 [Compound 98, N-{4-fluoro-3-[5-(3-methylbutyl)-2H-pyrazolo[3,4-b]pyridin-2-yl]phenyl}azetidine-1-carboxamide] | 0.015 | 0.023 | 0.025 | < 0.023 | – | – | – | – |
| CC(C)(C)c1cnc2nn(-c3cc(NC(=O)N4CC(F)C4)ccc3F)cc2c1 [Compound 22, N-(3-{5-tert-butyl-2H-pyrazolo[3,4-b]pyridin-2-yl}-4-fluorophenyl)-3-fluoroazetidine-1-carboxamide] | 0.0072 | 21 | 0.028 | < 0.023 | – | – | – | – |
| O=C(Nc1ccc(F)c(-n2cc3cc(C4CCN4)cnc3n2)c1)N1CC(F)C1 (centres unmarked) [Compound 264, N-{3-[5-(azetidin-2-yl)-2H-pyrazolo[3,4-b]pyridin-2-yl]-4-fluorophenyl}-3-fluoroazetidine-1-carboxamide] | 0.48 | 13.7 | 0.357 | 0.384 | – | – | – | – |
| Cc1nc(C)c(C(=O)Nc2ccc(F)c(-n3cc4cc(CCC(C)C)cnc4n3)c2)o1 [Compound 107, N-{4-fluoro-3-[5-(3-methylbutyl)-2H-pyrazolo[3,4-b]pyridin-2-yl]phenyl}-2,4-dimethyl-1,3-oxazole-5-carboxamide] | 0.077 | 0.13 | 0.22 | 0.088 | – | – | – | – |
| Cc1cc(C(=O)Nc2ccc(F)c(-n3cc4cc(C(C)C)cnc4n3)c2)c(C)o1 [Compound 72, N-{4-fluoro-3-[5-(propan-2-yl)-2H-pyrazolo[3,4-b]pyridin-2-yl]phenyl}-2,5-dimethylfuran-3-carboxamide] | 0.18 | 1.4 | 2.1 | 0.42 | – | – | – | – |
| CC1(C)C=C(C(=O)Nc2ccc(F)c(-n3cc4cc(-c5ccccn5)cnc4n3)c2)C1 [Compound 347, N-{4-fluoro-3-[5-(pyridin-2-yl)-2H-pyrazolo[3,4-b]pyridin-2-yl]phenyl}-3,3-dimethylcyclobut-1-ene-1-carboxamide] | 0.002 | 0.015 | 0.007 | 0.007 | – | – | – | – |
| O=C(Nc1ccc(F)c(-n2cc3cc(-c4ncccc4F)cnc3n2)c1)C1CC1 [Compound 332, N-{4-fluoro-3-[5-(3-fluoropyridin-2-yl)-2H-pyrazolo[3,4-b]pyridin-2-yl]phenyl}cyclopropanecarboxamide] | 0.015 | 0.075 | 0.028 | 0.038 | – | – | – | – |
| Cc1nc(C)c(C(=O)Nc2ccc(F)c(-n3cc4cc(N(C)C)cnc4n3)c2)o1 [Compound 154, N-{3-[5-(dimethylamino)-2H-pyrazolo[3,4-b]pyridin-2-yl]-4-fluorophenyl}-2,4-dimethyl-1,3-oxazole-5-carboxamide] | 0.023 | 0.078 | 0.053 | 0.037 | – | – | – | – |
